These results are taken from patent US7642244B2, “Neuropeptide-2 receptor (Y-2R) agonists and uses thereof” (Hoffmann-La Roche Inc., priority 2005, dated 2010).

The target of one assay is Y4R (Homo sapiens, UniProt P50391). Description: Calcium flux assay (FLIPR), Y4R. In kind it is cell-based. Background: Calcium assays in cells follow changes in intracellular calcium, usually with a dye or a luminescent sensor.
The target of the next assay is T1, Y5R (Homo sapiens, UniProt Q15761).
T1 sequence (Q15761 1-445): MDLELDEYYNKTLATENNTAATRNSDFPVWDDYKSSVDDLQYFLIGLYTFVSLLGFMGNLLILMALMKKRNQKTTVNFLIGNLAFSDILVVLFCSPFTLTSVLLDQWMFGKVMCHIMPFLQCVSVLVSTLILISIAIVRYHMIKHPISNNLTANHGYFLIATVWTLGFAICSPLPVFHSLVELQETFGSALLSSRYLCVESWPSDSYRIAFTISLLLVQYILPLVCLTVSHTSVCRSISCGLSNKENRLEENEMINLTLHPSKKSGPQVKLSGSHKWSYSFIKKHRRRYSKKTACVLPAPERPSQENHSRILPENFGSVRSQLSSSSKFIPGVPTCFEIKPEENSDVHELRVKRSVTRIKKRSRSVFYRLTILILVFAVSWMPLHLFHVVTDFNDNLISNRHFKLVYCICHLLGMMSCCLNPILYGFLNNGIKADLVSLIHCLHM
Kind of assay: Calcium flux assay (FLIPR), Y5R. In kind it is cell-based.

The target of another assay is T2, Y1R (Homo sapiens, UniProt P25929).
T2 sequence (P25929 1-384): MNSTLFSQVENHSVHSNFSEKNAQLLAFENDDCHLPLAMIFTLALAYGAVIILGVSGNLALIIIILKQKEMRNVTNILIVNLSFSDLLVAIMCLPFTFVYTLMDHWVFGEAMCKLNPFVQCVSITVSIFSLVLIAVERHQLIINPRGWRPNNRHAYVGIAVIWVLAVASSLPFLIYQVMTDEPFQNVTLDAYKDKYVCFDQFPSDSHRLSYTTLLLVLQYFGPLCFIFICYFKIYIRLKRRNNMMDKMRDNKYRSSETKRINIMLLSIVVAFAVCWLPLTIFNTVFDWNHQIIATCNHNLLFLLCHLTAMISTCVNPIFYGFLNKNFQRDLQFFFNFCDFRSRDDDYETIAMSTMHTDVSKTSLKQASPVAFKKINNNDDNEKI
Description: Calcium flux assay (FLIPR), Y1R. The class given is cell-based.

The test system of the next assay is hypothalamic slices. Particulars: hypothalamic slices in vitro; cited from earlier work.
Another assay has as its system male DIO rats. Particulars: 5 and 10 mg/kg, q48 hr, s.c., 3-week treatment, male DIO rats (FIG. 23).
The subject of assay [1] is female db/db mice. Particulars: acute, 1 and 10 mg/kg, s.c., 28 hr prior to OGTT, female db/db mice (FIG. 24).
Description: Female db/db mice (C57BL/KsJ-Lep^db/db, Jackson Laboratories, USA) were at 6 weeks of age when received. The mice were housed in a temperature and humidity controlled environment with a 12 h light: 12 h dark cycle, and given access to food (Purina rodent chow 5008) and water ad libitum. The mice (12-weeks old) were pre-bled 4 days prior to study, and those within a narrow range of fasted blood glucose levels were selected for the study in order to minimize variability between vehicle control and drug-treated groups. […] Blood samples were collected from tail clips following a 6 hr fast for determination of baseline values (t=0 min). The mice were then gavaged with an oral bolus of glucose (1 g/kg), and additional blood samples were collected at regular intervals (t=30, 60 and 120 min) for glucose measurement. […] The area under the curve (AUC0-120 min) was determined using the trapezoid method.
All data shown are the mean ± standard deviation (s.d.). Statistical evaluation of the data was carried out using one-way ANOVA, followed by Dunnett's test to determine where statistically significant differences existed between vehicle and drug treated groups. […] Data analysis was carried out with GraphPad software (GraphPad Prism).
Assay [2] relates to female db/db mice. To be noted: q48 hr, s.c.
Description: Female db/db mice (C57BL/KsJ-Lep^db/db, Jackson Laboratories, USA) were at 6 weeks of age when received. The mice were housed in a temperature and humidity controlled environment with a 12 h light: 12 h dark cycle, and given access to food (Purina rodent chow 5008) and water ad libitum. The mice (9 week old) were pre-bled 4 days prior to drug treatment, and those within a narrow range of fasted blood glucose levels were selected for the study in order to minimize variability between vehicle control and drug-treated groups. […] Basal fasting (2 to 6 hr) blood glucose measurements were conducted weekly. On study day 20, an oral glucose tolerance test was performed following a 6 hr fast. Blood samples were collected from tail clips for determination of baseline values (t=0 min). The mice were then gavaged with an oral bolus of glucose (1 g/kg), and additional blood samples were collected at regular intervals (t=30, 60, and 120 min) for glucose measurement. […] The area under the curve (AUC0-120 min) was determined using the trapezoid method.
All data shown are the mean ± standard deviation (s.d.). Statistical evaluation of the data was carried out using one-way ANOVA, followed by Dunnett's test to determine where statistically significant differences existed between vehicle and drug treated groups. Differences were considered statistically significant at P<0.05. […]

pEC50: −log10 of the molar value. Where two headings read alike, the source gives them in different places.

Y4R, sequence (P50391 whole entry): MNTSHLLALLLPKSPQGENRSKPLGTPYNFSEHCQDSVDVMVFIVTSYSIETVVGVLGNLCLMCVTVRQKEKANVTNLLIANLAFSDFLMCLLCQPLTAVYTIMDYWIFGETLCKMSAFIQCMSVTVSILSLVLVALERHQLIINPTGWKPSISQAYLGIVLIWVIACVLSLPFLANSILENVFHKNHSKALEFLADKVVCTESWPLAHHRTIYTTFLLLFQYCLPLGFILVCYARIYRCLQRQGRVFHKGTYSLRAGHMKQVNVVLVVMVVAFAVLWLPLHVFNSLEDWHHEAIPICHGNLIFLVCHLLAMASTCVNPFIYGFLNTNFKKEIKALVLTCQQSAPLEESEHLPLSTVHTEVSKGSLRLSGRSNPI
Description for Y1R: (§1) During the incubation, test compounds were prepared at 3.5× the desired concentration in HBSS (20 mM HEPES)/0.05% BSA/1% DMSO and transferred to a 384-well plate for use on FLIPR® (FILPR, Fluorescent Imaging Plate Reader, is a registered trademark of Molecular Devices Corp.).
(§2) After incubation, both the cell and compound plates were brought to the FLIPR® and 20 μL of the diluted compounds were transferred to the cell plates by the FLIPR®. During the assay, fluorescence readings were taken simultaneously from all 384 wells of the cell plate every 1.5 seconds. Five readings were taken to establish a stable baseline, and then 20 μl of sample was rapidly (30 μl/sec) and simultaneously added to each well of the cell plate. The fluorescence was continuously monitored before, during and after sample addition for a total elapsed time of 100 seconds. Responses (increase in peak fluorescence) in each well following addition was determined. The initial fluorescence reading from each well, prior to ligand stimulation, was used as a zero baseline value for the data from that well. The responses were expressed as a percentage of maximal response of the positive control.
Description for Y4R: as §1, §2
Description for Y5R: as §1, §2
Description for male DIO rats: Male Sprague Dawley rats (7 weeks old) were obtained from Charles River Laboratories (USA) and housed in a temperature and humidity controlled environment with a 12 h light:12 h dark cycle. The rats were given ad libitum access to a high fat chow diet (HFD; 60% of dietary kcal as fat, Research Diets D12492) and water throughout the study. Following 7 weeks on the HFD, rats were sorted by body weight and caged singly.
All data shown are the mean ± standard error (s.e.m.). Statistical evaluation of the data was carried out using one-way ANOVA, followed by Dunnett's test to determine where statistically significant differences existed between vehicle and drug treated groups. Differences were considered statistically significant at P<005. Data analysis was carried out with GraphPad software (GraphPad Prism).

By pEC50 is commonly meant the negative decadic logarithm of the EC50, by convention in mol/L. `CC[C@H](C)[C@H](NC(=O)CC1CCCCC1)C(=O)N[C@@H](CCCCN)C(=O)N1CCN(c2ccc3ncn(CC(=O)N[C@@H](CCCNC(=N)N)C(=O)N[C@@H](Cc4c[nH]cn4)C(=O)N[C@@H](Cc4ccc(O)cc4)C(=O)N[C@@H](CC(C)C)C(=O)N[C@@H](CC(N)=O)C(=O)N[C@@H](Cc4c[nH]c5ccccc45)C(=O)N[C@H](C(=O)N[C@H](C(=O)N[C@@H](CCCNC(=N)N)C(=O)N[C@@H](CCC(N)=O)C(=O)N(C)[C@@H](CCCNC(=N)N)C(=O)N[C@@H](Cc4ccc(O)cc4)C(N)=O)[C@@H](C)O)C(C)C)c(=O)c3c2)CC1` [Example 31]: the pEC50 at Y4R, on Y5R and at Y1R was less than 5.30 each time.
Take `N=C(N)NCCC[C@H](NC(=O)CC1(CC(=O)N2CCN(C3c4ccccc4NC(=O)c4ccccc43)CC2)CCCC1)C(=O)NCCn1c(=O)n(-c2ccccc2)n(-c2ccccc2)c1=O` (stereo partly shown) [BIIE0246]: the NPY release entry in the assay with hypothalamic slices was “increases NPY release”.
As for `CC[C@H](C)[C@H](NC(C)=O)C(=O)N[C@@H](CCCCN)C(=O)N1CCN(c2ccc3ncn(CC(=O)N[C@@H](CCCNC(=N)N)C(=O)N[C@@H](Cc4c[nH]cn4)C(=O)N[C@@H](Cc4ccc(O)cc4)C(=O)N[C@@H](CC(C)C)C(=O)N[C@@H](CC(N)=O)C(=O)N[C@@H](Cc4c[nH]c5ccccc45)C(=O)N[C@H](C(=O)N[C@H](C(=O)N[C@@H](CCCNC(=N)N)C(=O)N[C@@H](CCC(N)=O)C(=O)N(C)[C@@H](CCCNC(=N)N)C(=O)N[C@@H](Cc4c(F)cc(O)cc4F)C(N)=O)[C@@H](C)O)C(C)C)c(=O)c3c2)CC1` [Example 27], the pEC50 on Y4R and at Y1R was less than 5.30 in each case.
Take `CC[C@H](C)[C@H](NC(=O)C(C)(C)C)C(=O)N[C@@H](CCCCN)C(=O)N1CCN(c2ccc3ncn(CC(=O)N[C@@H](CCCNC(=N)N)C(=O)N[C@@H](Cc4c[nH]cn4)C(=O)N[C@@H](Cc4ccc(O)cc4)C(=O)N[C@@H](CC(C)C)C(=O)N[C@@H](CC(N)=O)C(=O)N[C@@H](Cc4c[nH]c5ccccc45)C(=O)N[C@H](C(=O)N[C@H](C(=O)N[C@@H](CCCNC(=N)N)C(=O)N[C@@H](CCC(N)=O)C(=O)N(C)[C@@H](CCCNC(=N)N)C(=O)N[C@@H](Cc4ccc(O)cc4)C(N)=O)[C@@H](C)O)C(C)C)c(=O)c3c2)CC1` [Example 30]: the pEC50 at Y4R, at Y5R and on Y1R was less than 5.30 in each case.
In the case of `CCCCC(=O)N[C@H](C(=O)N[C@@H](CCCCN)C(=O)N1CCN(c2ccc3ncn(CC(=O)N[C@@H](CCCNC(=N)N)C(=O)N[C@@H](Cc4c[nH]cn4)C(=O)N[C@@H](Cc4ccc(O)cc4)C(=O)N[C@@H](CC(C)C)C(=O)N[C@@H](CC(N)=O)C(=O)N[C@@H](Cc4c[nH]c5ccccc45)C(=O)N[C@H](C(=O)N[C@H](C(=O)N[C@@H](CCCNC(=N)N)C(=O)N[C@@H](CCC(N)=O)C(=O)N(C)[C@@H](CCCNC(=N)N)C(=O)N[C@@H](Cc4ccc(O)cc4)C(N)=O)[C@@H](C)O)C(C)C)c(=O)c3c2)CC1)[C@@H](C)CC` [Example 29], the pEC50 on Y4R, on Y5R and on Y1R was less than 5.30 in each case.
In the case of `CCCC[C@H](NC(=O)[C@@H](N)[C@@H](C)CC)C(=O)N1CCN(c2ccc3ncn(CC(=O)N[C@@H](CCCNC(=N)N)C(=O)N[C@@H](Cc4c[nH]cn4)C(=O)N[C@@H](Cc4ccc(O)cc4)C(=O)N[C@@H](CC(C)C)C(=O)N[C@@H](CC(N)=O)C(=O)N[C@@H](Cc4c[nH]c5ccccc45)C(=O)N[C@H](C(=O)N[C@H](C(=O)N[C@@H](CCCNC(=N)N)C(=O)N[C@@H](CCC(N)=O)C(=O)N(C)[C@@H](CCCNC(=N)N)C(=O)N[C@@H](Cc4ccc(O)cc4)C(N)=O)[C@@H](C)O)C(C)C)c(=O)c3c2)CC1` [Example 26], the pEC50 at Y4R, on Y5R and on Y1R was less than 5.30 throughout.
Regarding `CC[C@H](C)[C@H](NC(=O)c1ccccc1)C(=O)N[C@@H](CCCCN)C(=O)N1CCN(c2ccc3ncn(CC(=O)N[C@@H](CCCNC(=N)N)C(=O)N[C@@H](Cc4c[nH]cn4)C(=O)N[C@@H](Cc4ccc(O)cc4)C(=O)N[C@@H](CC(C)C)C(=O)N[C@@H](CC(N)=O)C(=O)N[C@@H](Cc4c[nH]c5ccccc45)C(=O)N[C@H](C(=O)N[C@H](C(=O)N[C@@H](CCCNC(=N)N)C(=O)N[C@@H](CCC(N)=O)C(=O)N(C)[C@@H](CCCNC(=N)N)C(=O)N[C@@H](Cc4ccc(O)cc4)C(N)=O)[C@@H](C)O)C(C)C)c(=O)c3c2)CC1` [Example 32], the pEC50 on Y4R, at Y5R and on Y1R was less than 5.30 throughout.
Regarding “Ile((PEG-30,000)CH2CH2NHCOCH2CH2CO)(ε)Lys-Pqa-Arg-His-Tyr-Leu-Asn-Trp-Val-Thr-Arg-Gln-(NMe)Arg-Tyr-NH2 [Example 41]”, the “body weight gain versus vehicle-treated animals” value in the assay with male DIO rats is “significant decrease in body weight gain”. Moreover, the “glucose excursion in response to an oral glucose challenge” value in the assay with female db/db mice [1] is “significantly decreased glucose excursion”; with female db/db mice [2] (day 20, 3 and 10 mg/kg, female db/db mice (FIG. 25B)), “significantly decreased glucose excursion”. In addition, in the assay with female db/db mice [2] (1, 3 and 10 mg/kg, day 8, 15 and 21, female db/db mice (FIG. 25A)), the “basal blood glucose levels versus vehicle-treated animals” value is reported as “reduced basal blood glucose levels”.
For the molecule `CC[C@H](C)[C@H](N)C(=O)N[C@@H](CCCCN)C(=O)N1CCN(c2ccc3ncn(CC(=O)N[C@@H](CCCNC(=N)N)C(=O)N[C@@H](Cc4c[nH]cn4)C(=O)N[C@@H](Cc4ccc(O)cc4)C(=O)N[C@@H](CC(C)C)C(=O)N[C@@H](CC(N)=O)C(=O)N[C@@H](Cc4c[nH]c5ccccc45)C(=O)N[C@H](C(=O)N[C@H](C(=O)N[C@@H](CCCNC(=N)N)C(=O)N[C@@H](CCC(N)=O)C(=O)N(C)[C@@H](CCCNC(=N)N)C(=O)N[C@@H](Cc4ccc(O)cc4)C(N)=O)[C@@H](C)O)C(C)C)c(=O)c3c2)CC1` [Example 25], the figures for the pEC50 on Y4R, at Y5R and at Y1R were less than 5.30, less than 5.30 and 6.53, respectively.
